ChEMBL document CHEMBL3870328, “Synthesis of novel Ral inhibitors: An in vitro and in vivo study” (Bioorg Med Chem Lett, 2016)

What was measured:
[1] = Drug metabolism in mouse xenografted with human NCI-H2122 cells assessed as 6-amino-4-(2,5-dihydroxyphenyl)-3-(naphthalen-2-yl)-1,4-dihydropyrano[2,3-c]pyrazole-5-carbonitrile metabolite formation in liver at 50 mg/kg, ip after 3 hrs by LC-MS/MS analysis; assay type: ADME, organism-based; settings: in vivo
[2] = Drug metabolism in mouse xenografted with human NCI-H2122 cells assessed as M4 metabolite formation in kidney at 50 mg/kg, ip after 3 hrs by LC-MS/MS analysis; assay type: ADME, organism-based; settings: in vivo
[3] = Drug metabolism in mouse xenografted with human NCI-H2122 cells assessed as M1 metabolite formation in plasma at 50 mg/kg, ip after 3 hrs by LC-MS/MS analysis; assay type: ADME, organism-based; settings: in vivo
[4] = Drug metabolism in CD1 mouse liver microsomes assessed as CYP450-mediated demethylation by measuring M4 metabolite formation at 16.7 uM after 10 mins in presence of NADPH by LC-MS/MS analysis; assay type: ADME
[5] = Drug metabolism in mouse xenografted with human NCI-H2122 cells assessed as M4 metabolite formation in liver at 50 mg/kg, ip after 3 hrs by LC-MS/MS analysis; assay type: ADME, organism-based; settings: in vivo
[6] = Drug uptake in tumor of mouse xenografted with human NCI-H2122 cells at 50 mg/kg, ip after 3 hrs by LC-MS/MS analysis; assay type: ADME, organism-based, Neoplasm; settings: read-out: Drug uptake
[7] = Drug metabolism in mouse xenografted with human NCI-H2122 cells assessed as M5 metabolite formation in heart at 50 mg/kg, ip after 3 hrs by LC-MS/MS analysis; assay type: ADME, organism-based; settings: in vivo
[8] = Drug metabolism in mouse xenografted with human NCI-H2122 cells assessed as M3 metabolite formation in kidney at 50 mg/kg, ip after 3 hrs by LC-MS/MS analysis; assay type: ADME, organism-based; settings: in vivo
[9] = Drug metabolism in mouse xenografted with human NCI-H2122 cells assessed as M4 metabolite formation in lungs at 50 mg/kg, ip after 3 hrs by LC-MS/MS analysis; assay type: ADME, organism-based, Lung; settings: in vivo
[10] = Drug metabolism in mouse xenografted with human NCI-H2122 cells assessed as M5 metabolite formation in kidney at 50 mg/kg, ip after 3 hrs by LC-MS/MS analysis; assay type: ADME, organism-based; settings: in vivo
[11] = Drug metabolism in mouse xenografted with human NCI-H2122 cells assessed as M1 metabolite formation in tumor at 50 mg/kg, ip after 3 hrs by LC-MS/MS analysis; assay type: ADME, organism-based, Neoplasm; settings: in vivo

- Drug metabolism [1]: 160.8 ng/g
- Drug metabolism [2]: 260 ng/g
- Drug metabolism [3]: 7.7 ng/mL
- Drug metabolism [4]: Metabolite_Detected
- Drug metabolism [5]: 1391.3 ng/g
- concentration at 3 h [6]: 5830 ng/g
- Drug metabolism [7]: 5.5 ng/g
- Drug metabolism [8]: 4.1 ng/g
- Drug metabolism [9]: 46.8 ng/g
- Drug metabolism [10]: 20.9 ng/g
- Drug metabolism [11]: 7.4 ng/g
Structure (SMILES): COc1ccc(OC)c(C2C(C#N)=C(N)Oc3[nH]nc(-c4ccc5ccccc5c4)c32)c1 (stereo unspecified)
